The values that follow come from patent US5663331A, “Cephalosporin compounds” (Il-Dong Pharm. Co., Ltd., priority 1992, dated 1997).

In brackets after ≈: the same amount, converted by molar mass.

What all share (type): cell-based
Assay [1] concerns Esherichia coli ATCC 25922. Nature of the assay: MIC, two-fold dilution method, Esherichia coli ATCC 25922. Particulars: Muller Hinton Broth, 10^6 CFU per ml, 37° C., 18 to 20 hours; for MIC: read-out: Antibacterial Activity (MIC). Here is the method:
(§1) In order to illustrate the usefulness of the invented compounds, the minimal inhibitory concentrations-(MIC) thereof against standard strains were determined and compared with Cefotaxime, a known compound. Also, the in vitro antibacterial activity was determined by a two-fold dilution method as described below: That is, the two-fold serial dilutions of the compound were made and dispersed in Muller Hinton Broth medium. Standard test strain which had the 10^6 CFU per ml was inoculated on the medium, and was incubated at 37° C. for 18 to 20 hours.

The test system of assay [2] is Klebsiella pneumoniae ATCC 10031. As to the kind of experiment: MIC, two-fold dilution method, Klebsiella pneumoniae ATCC 10031. Particulars: 10^6 CFU per ml, 37° C., 18 to 20 hours; for MIC: ATCC10031, Muller Hinton Broth, read-out: Antibacterial Activity (MIC); for Antibacterial Activity (MIC): Muller Hinton Broth. On the procedure: as §1
For assay [3], the system named is Bacillus subtilis ATCC 6633. As to the kind of experiment: MIC, two-fold dilution method, Bacillus subtilis ATCC 6633. Particulars: 10^6 CFU per ml, 37° C., 18 to 20 hours; for MIC: ATCC6633, Muller Hinton Broth, read-out: Antibacterial Activity (MIC); for Antibacterial Activity (MIC): Muller Hinton Broth. On the procedure:
as §1

The subject of assay [4] is Pseudomonas aeurginosa NCTC 10490. Nature of the assay: MIC, two-fold dilution method, Pseudomonas aeurginosa NCTC 10490. Particulars: 10^6 CFU per ml, 37° C., 18 to 20 hours; for MIC: NCTC10490, Muller Hinton Broth, read-out: Antibacterial Activity (MIC); for Antibacterial Activity (MIC): Muller Hinton Broth. Here is the method: as §1
The test system of assay [5] is Staphylococcus aureus ATCC 65389. Nature of the assay: MIC, two-fold dilution method, Staphylococcus aureus ATCC 65389. To be noted: 10^6 CFU per ml, 37° C., 18 to 20 hours; for MIC: ATCC65389, Muller Hinton Broth, read-out: Antibacterial Activity (MIC); for Antibacterial Activity (MIC): Muller Hinton Broth. On the procedure: as §1
Assay [6] has as its system Streptococcus faecalis ATCC 10541. As to the kind of experiment: MIC, two-fold dilution method, Streptococcus faecalis ATCC 10541. Particulars: 10^6 CFU per ml, 37° C., 18 to 20 hours; for MIC: Enterococcus faecalis, ATCC10541, Muller Hinton Broth, read-out: Antibacterial Activity (MIC); for Antibacterial Activity (MIC): Muller Hinton Broth. On the procedure:
as §1

In assay [7] the test system is Staphylococcus epidermidis ATCC 12228. As to the kind of experiment: MIC, two-fold dilution method, Staphylococcus epidermidis ATCC 12228. Particulars: 10^6 CFU per ml, 37° C., 18 to 20 hours; for MIC: ATCC12228, Muller Hinton Broth, read-out: Antibacterial Activity (MIC); for Antibacterial Activity (MIC): Muller Hinton Broth. On the procedure: as §1

As for `CCN1CCN(c2cc3c(cc2F)c(SCC2=C(C(=O)[O-])N4C(=O)C(NC(=O)/C(=N\OC(C)(C)C(=O)O)c5csc(N)n5)C4SC2)cc[n+]3CC)CC1` (stereo not drawn) [Compound I-61, 7-[(Z)-2-(2-aminothiazol-4-yl)-2-(2-carboxyprop-2-oxyimino)acetamido]-3-[1-ethyl-6-fluoro-7-(1-ethylpiperazinyl)quinolinium-4-yl]thiomethyl-3-cephem-4-carboxylate], the MIC (commonly the least concentration at which growth counts as inhibited) in assay [1] was 3.13 µg/mL (≈ 3.98 µM); in assay [2] it was 3.13 µg/mL (≈ 3.98 µM); in assay [3], 3.13 µg/mL (≈ 3.98 µM); in assay [4], 1.56 µg/mL (≈ 1.98 µM); in assay [5] it was 1.56 µg/mL (≈ 1.98 µM); in assay [6], 0.39 µg/mL (≈ 0.496 µM). Besides, in assay [7], the MIC amounted to 1.56 µg/mL (≈ 1.98 µM).

On to `C=CCO/N=C(\C(=O)NC1C(=O)N2C(C(=O)[O-])=C(CSc3cc[n+](CC)c4cc(N5CCNCC5)c(F)cc34)CS[C@H]12)c1csc(N)n1` (stereo partly drawn) [Compound I-29, 7-[(Z)-2-(2-aminothiazol-4-yl)-2-(allyloxyimino)acetamido]-3-(1-ethyl-6-fluoro-7-piperazinylquinolinium-4-yl)thiomethyl-3-cephem-4-carboxylate], for which the MIC in assay [1] was found to be 1.56 µg/mL (≈ 2.19 µM); in assay [2], 0.39 µg/mL (≈ 0.547 µM); in assay [3], 0.39 µg/mL (≈ 0.547 µM); in assay [4], 3.13 µg/mL (≈ 4.39 µM); in assay [5], 0.78 µg/mL (≈ 1.09 µM); in assay [6] it was 0.39 µg/mL (≈ 0.547 µM). Further, the minimal inhibitory concentration (MIC) in assay [7] came to 0.78 µg/mL (≈ 1.09 µM).

As to `C#CCO/N=C(\C(=O)NC1C(=O)N2C(C(=O)[O-])=C(CSc3cc[n+](C4CC4)c4cc(N5CCNCC5C)c(F)cc34)CS[C@H]12)c1csc(N)n1` (stereo partly drawn) [Compound I-44, 7-[(Z)-2-(2-aminothiazol-4-yl)-2-(propargyloxyimino)acetamido]-3-[1-cyclopropyl-6-fluoro-7-(2-methylpiperazinyl)quinolinium-4-yl]thiomethyl-3-cephem-4-carboxylate], the “Antibacterial Activity (MIC)” value in assay [1] was 1.56 µg/mL; in assay [2] it was 0.78 µg/mL; in assay [3], 0.05 µg/mL; in assay [4], 1.56 µg/mL; in assay [5], 0.39 µg/mL; in assay [6] it was 0.2 µg/mL. Moreover, the “Antibacterial Activity (MIC)” value in assay [7] came to 0.2 µg/mL.

Consider `C=CCO/N=C(\C(=O)NC1C(=O)N2C(C(=O)[O-])=C(CSc3cc[n+](CC=C)c4cc(N5CCNCC5C)c(F)cc34)CS[C@H]12)c1csc(N)n1` (stereo partly drawn) [Compound I-36, 7-[(Z)-2-(2-aminothiazol-4-yl)-2-(allyloxyimino)acetamido]-3-[1-allyl-6-fluoro-7-(2-methylpiperazinyl)quinolinium-4-yl]thiomethyl-3-cephem4-carboxylate], for which the “Antibacterial Activity (MIC)” value worked out at 1.56 µg/mL in assay [1]; 0.78 µg/mL in assay [2]; 0.39 µg/mL in assay [3]; 1.56 µg/mL in assay [4]; 0.78 µg/mL in assay [5]; 0.39 µg/mL in assay [6]. Moreover, the “Antibacterial Activity (MIC)” value in assay [7] amounted to 1.56 µg/mL.

As to `CO/N=C(\C(=O)N[C@@H]1C(=O)N2C(C(=O)O)=C(COC(C)=O)CS[C@H]12)c1csc(N)n1` [CTX, Cefotaxime, reference compound], the MIC in assay [1] is 0.78 µg/mL (≈ 1.71 µM); in assay [2], 0.39 µg/mL (≈ 0.856 µM); in assay [3] it was 0.2 µg/mL (≈ 0.439 µM); in assay [4] it was 1.56 µg/mL (≈ 3.43 µM); in assay [5], 0.78 µg/mL (≈ 1.71 µM); in assay [6] it was 0.39 µg/mL (≈ 0.856 µM). Further, the MIC in assay [7] is 0.78 µg/mL (≈ 1.71 µM).

On to `C#CCO/N=C(\C(=O)NC1C(=O)N2C(C(=O)[O-])=C(CSc3cc[n+](CC=C)c4cc(N5CCNCC5C)c(F)cc34)CS[C@H]12)c1csc(N)n1` (stereo partly drawn) [Compound I-52, 7-[(Z)-2-(2-aminothiazol-4-yl)-2-(propargyloxyimino)acetamido]-3-[1-allyl-6-fluoro-7-(2-methylpiperazinyl)quinolinium-4-yl]thiomethyl-3-cephem-4-carboxylate], for which the “Antibacterial Activity (MIC)” value came out at 0.78 µg/mL in assay [1]; 1.56 µg/mL in assay [2]; 0.39 µg/mL in assay [3]; 1.56 µg/mL in assay [4]; 3.13 µg/mL in assay [5]; 0.78 µg/mL in assay [6]. For the same molecule, the “Antibacterial Activity (MIC)” value in assay [7] turned out to be 1.56 µg/mL.

As for `C=CCO/N=C(\C(=O)NC1C(=O)N2C(C(=O)[O-])=C(CSc3cc[n+](CC)c4cc(N5CCN(CC)CC5)c(F)cc34)CSC12)c1csc(N)n1` (stereo not drawn) [Compound I-31], the minimum inhibitory concentration (MIC) was determined as 0.78 µg/mL (≈ 1.05 µM) in assay [1]; 0.39 µg/mL (≈ 0.526 µM) in assay [2]; 0.2 µg/mL (≈ 0.27 µM) in assay [3]; 0.78 µg/mL (≈ 1.05 µM) in assay [4]; 0.39 µg/mL (≈ 0.526 µM) in assay [5]; 0.39 µg/mL (≈ 0.526 µM) in assay [6]. Moreover, the MIC in assay [7] stood at 0.78 µg/mL (≈ 1.05 µM).

As for `C=CCO/N=C(\C(=O)NC1C(=O)N2C(C(=O)[O-])=C(CSc3cc[n+](C)c4cc(N5CCN(CC)CC5)c(F)cc34)CSC12)c1csc(N)n1` (stereo not drawn) [Compound I-23, 7-[(Z)-2-(2-aminothiazol-4-yl)-2-(allyloxyimino)acetamido]-3-[1-methyl-6-fluoro-7-(1-ethylpiperazinyl)quinolinium-4-yl]thiomethyl-3-cephem-4-carboxylate], the MIC in assay [1] was 1.56 µg/mL (≈ 2.15 µM); in assay [2] it was 0.2 µg/mL (≈ 0.275 µM); in assay [3] it was 0.2 µg/mL (≈ 0.275 µM); in assay [4] it was 1.56 µg/mL (≈ 2.15 µM); in assay [5] it was 0.1 µg/mL (≈ 0.138 µM); in assay [6], 0.2 µg/mL (≈ 0.275 µM). In addition, in assay [7], the MIC was determined as 0.1 µg/mL (≈ 0.138 µM).

On to `C=CC[n+]1ccc(SCC2=C(C(=O)[O-])N3C(=O)C(NC(=O)/C(=N\OC)c4csc(N)n4)C3SC2)c2cc(F)c(N3CCNCC3C)cc21` (stereo not drawn) [Compound I-16, 7-[(Z)-2-(2-aminothiazol-4-yl)-2-(methoxyimino)acetamido]-3-[1-allyl-6-fluoro-7-(2-methylpiperazinyl)quinolinium-4-yl]thiomethyl 3-cephem-4-carboxylate], for which the “Antibacterial Activity (MIC)” value stood at 1.56 µg/mL in assay [1]; 0.39 µg/mL in assay [2]; 0.2 µg/mL in assay [3]; 1.56 µg/mL in assay [4]; 0.2 µg/mL in assay [5]; 0.78 µg/mL in assay [6]. The “Antibacterial Activity (MIC)” value in assay [7] was found to be 0.39 µg/mL.

As for `CCN1CCN(c2cc3c(cc2F)c(SCC2=C(C(=O)[O-])N4C(=O)C(NC(=O)/C(=N\OC(C)(C)C(=O)O)c5csc(N)n5)C4SC2)cc[n+]3C)CC1` (stereo not drawn) [Compound I-55, 7-[(Z)-2-(2-aminothiazol-4-yl)-2-(2-carboxyprop-2-oxyimino)acetamido]-3-[1-methyl-6-fluoro-7-(1-ethylpiperazinyl)quinolinium-4-yl]thiomethyl-3-cephem4-carboxylate], the MIC in assay [1] was found to be 0.78 µg/mL (≈ 1.01 µM); in assay [2], 0.39 µg/mL (≈ 0.505 µM); in assay [3], 0.2 µg/mL (≈ 0.259 µM); in assay [4] it was 0.39 µg/mL (≈ 0.505 µM); in assay [5] it was 1.56 µg/mL (≈ 2.02 µM); in assay [6] it was 0.2 µg/mL (≈ 0.259 µM). Moreover, the minimal inhibitory concentration (MIC) in assay [7] is 0.78 µg/mL (≈ 1.01 µM).

As for `C=CCO/N=C(\C(=O)NC1C(=O)N2C(C(=O)[O-])=C(CSc3cc[n+](CC)c4cc(N5CCNCC5C)c(F)cc34)CS[C@H]12)c1csc(N)n1` (stereo partly drawn) [Compound I-32, 7-[(Z)-2-(2-aminothiazol-4-yl)-2-(allyloxyimino)acetamido]-3-[1-ethyl-6-fluoro-7-(2-methylpiperazinyl)quinolinium-4-yl]thiomethyl-3-cephem-4-carboxylate], the “Antibacterial Activity (MIC)” value came out at 0.78 µg/mL in assay [1]; 0.39 µg/mL in assay [2]; 0.39 µg/mL in assay [3]; 1.56 µg/mL in assay [4]; 0.39 µg/mL in assay [5]; 0.39 µg/mL in assay [6]. Moreover, the “Antibacterial Activity (MIC)” value in assay [7] worked out at 0.78 µg/mL.

For `C=CC[n+]1ccc(SCC2=C(C(=O)[O-])N3C(=O)C(NC(=O)/C(=N\OC(C)(C)C(=O)O)c4csc(N)n4)[C@H]3SC2)c2cc(F)c(N3CCNCC3C)cc21` (stereo partly drawn) [Compound I-64, 7-[(Z)-2-(2-aminothiazol-4-yl)-2-(2-carboxyprop-2-oxyimino)acetamido]-3-[1-allyl-6-fluoro-7-(2-methylpiperazinyl)quinolinium-4-yl]thiomethyl-3-cephem-4-carboxylate], the “Antibacterial Activity (MIC)” value in assay [1] was 1.56 µg/mL; in assay [2], 1.56 µg/mL; in assay [3], 1.56 µg/mL; in assay [4], 3.13 µg/mL; in assay [5] it was 3.13 µg/mL; in assay [6], 0.39 µg/mL. Further, the “Antibacterial Activity (MIC)” value in assay [7] came out at 1.56 µg/mL.
